Tested on: p53 effector protein p21
Assay: Western blot of transfected SiHa cells for p21
Assay type: cell-based, human
Settings: SiHa (HPV-16) cells, Spy Cas9
Description: Phenotypic analysis of RGNs in HeLa was performed using the Fugene6 transfection reagent as per the manufacturer's protocol. Cells were plated at 2.5×10^5 cells per well in 6-well plates and transfected with a 3 to 1 ratio of RGN expression vector to pLCE (a GFP-expressing plasmid included to determine transfection efficiency). SiHa cells were transfected with HPV-16-specific RGN expression vectors using Lipofectamine3000 (Clontech) using the manufacturer's protocol. Cells were then harvested and lysed in SDS/β-mercaptoethanol protein lysis buffer 48 hours post transfection. Lysates were subjected to electrophoresis on 4-20% SDS-polyacrylamide gels (Bio-Rad) and transferred to nitrocellulose membranes. […] The membranes were washed in PBS-T, incubated with a species-specific secondary antibody, and then washed again in PBS-T. The membranes were incubated with Western Bright Sirius Western blot detection kit (Advansta) and signals captured using GeneSnap and quantified using GeneTools (Syngene). […]
All the work described thus far used the HPV-18 transformed cervical carcinoma cell line HeLa. To extend these studies, we also analyzed the human SiHa cervical carcinoma cell line, which is transformed by HPV-16 (Seedorf et al., 1987), using sgRNAs specific for HPV-16 E6 and E7, which differ in sequence from HPV-18 E6 and E7. […]

“E6 sgRNA1: Spy Cas9 sgRNA for HPV-18 E6, GGCGCTTTGAGGATCCAACA; SEQ ID NO: 8 (expressed or natural sequence)” was tested, and the p21 expression was “failed to induce p21 expression”.

From US10286084B2, “Compositions for the inactivation of virus replication and methods of making and using the same” (priority 2014, dated 2019)
